From publication PMC4536076, “Chemical Library Screening and Structure-Function Relationship Studies Identify Bisacodyl as a Potent and Selective Cytotoxic Agent Towards Quiescent Human Glioblastoma Tumor Stem-Like Cells” (PLoS ONE, 2015)
Structures can show the parent of a compound that is named as a salt. Where two headings read alike, the source gives them in different places.

Key:
proliferating TG1 GSCs [1] = test: ATP-Glo dose-response, proliferating TG1 GSCs; assay type: cell-based, human; conditions: 24 h, 24 h
Description: (§1) The EC50 value was determined for each compound by fitting the data points according to the following equation: y=Smax+Smin*(x*1/EC50)^n/1+(x*1/EC50)^n where y represents the expected response, x is the chemical compound concentration, S max and S min are the maximum and minimum responses recorded, respectively and n is the Hill coefficient. Curve fitting was performed using Microsoft Excel Solver component.
(§2) Proliferating or quiescent TG1 cells were seeded in 50 μL of their respective media (30 000 and 40 000 viable cells/well, respectively) into 96-well opaque bottom plates (Greiner, Courtaboeuf, France). Compound treatment was performed by adding 50 μL of compound solutions (in the presence of 2% DMSO in culture medium). […] All compounds were tested in triplicate in each experiment. Independent experiments were performed at least twice for almost all of the compounds.

quiescent TG1 GSCs [2] = test: ATP-Glo dose-response, quiescent TG1 GSCs; assay type: cell-based, human; conditions: for EC50: 24 h; for fold increase in EC50 (activity decrease) compared to DDPM (compound 2): quiescent TG1 GSCs
Description: as §1, §2

quiescent OB1 GSCs = test: ATP-Glo dose-response, quiescent OB1 GSCs; assay type: cell-based, human; conditions: ATP Glo readout, 24 h treatment, read-out: Q OB1 GSCs EC50
Description: as §1
(§3) Similar dose response curves were performed using GSCs isolated from GBM of two other patients (TG16 and OB1 GSCs) grown under proliferating and quiescent conditions.

proliferating TG16 GSCs = test: ATP-Glo dose-response, proliferating TG16 GSCs; assay type: cell-based, human; conditions: ATP Glo readout, 24 h treatment, read-out: P TG16 GSCs EC50
Description: as §1, §3

[3] = test system: primary astrocytes (HA cells); test: ATP-Glo dose-response, primary astrocytes; assay type: cell-based, human; conditions: ATP Glo readout, 24 h treatment
quiescent TG16 GSCs = test: ATP-Glo dose-response, quiescent TG16 GSCs; assay type: cell-based, human; conditions: ATP Glo readout, 24 h treatment, read-out: Q TG16 GSCs EC50
Description: as §1, §3

proliferating TG1 GSCs [4] = conditions: primary screen, 50 μM, 24 h
Description: (§4) Proliferating or quiescent TG1 GSCs were seeded (30 000 and 40 000 viable cells/well, respectively) into 96-well opaque bottom plates (Greiner) with the Biomek FX robot (Beckman Coulter). Each compound from the Prestwick Library was then added (final concentration: 50 μM; 1% DMSO). Each molecule was tested once. Negative control wells (12/96 per assay plate) contained cells treated with 1% DMSO (final concentration) and positive control wells (4/96 per assay plate) contained cells treated with the fungal toxin ophiobolin A (Sigma Aldrich) at 50 μM with 1% DMSO. […] Luminescence in each well was measured with the Victor3 plate reader (PerkinElmer).
(§5) Relative ATP levels in each well were determined by calculating the percentage of luminescent signal in the well with respect to the average signal measured in negative control wells.
(§6) Primary screen hits were further tested in duplicate, at two concentrations (50 and 5 μM) on proliferating and quiescent TG1 GSCs. Cell plating and treatment with compounds were as for the primary screen. Hit selection/confirmation criteria for quiescent cells were as described above.

quiescent TG1 GSCs [5] = conditions: primary screen, 50 μM, 24 h
Description: as §4, §5, §6

HEK 293 cells = test: ATP-Glo dose-response, HEK 293 cells; assay type: cell-based, human; conditions: ATP Glo readout, 24 h treatment
Description: as §1, with “component. […]” for “component.”

proliferating OB1 GSCs = test: ATP-Glo dose-response, proliferating OB1 GSCs; assay type: cell-based; conditions: Homo sapiens; ATP Glo readout, 24 h treatment; read-out: P OB1 GSCs EC50
Description: as §1, §3

[6] = test system: fetal neural stem cells (f-NSC); test: ATP-Glo dose-response, fetal neural stem cells; assay type: cell-based; conditions: Homo sapiens, Neural stem cell; ATP Glo readout, 24 h treatment
[7] = Homo sapiens, SAR study, ATP-Glo cell survival assay, triplicate, read-out: Proliferating TG1 GSCs EC50
[8] = Homo sapiens, SAR study, ATP-Glo cell survival assay, triplicate, read-out: Quiescent TG1 GSCs EC50
[9] = Homo sapiens, ATP Glo readout, 24 h treatment, n = 3, read-out: P TG1 GSCs EC50
[10] = Homo sapiens, ATP Glo readout, 24 h treatment, n = 3, read-out: Q TG1 GSCs EC50
[11] = SAR study, ATP-Glo cell survival assay, triplicate
[12] = SAR study, ATP-Glo cell survival assay, triplicate, read-out: Proliferating TG1 GSCs EC50
[13] = SAR study, ATP-Glo cell survival assay, triplicate, read-out: Quiescent TG1 GSCs EC50

Oc1ccc(C(c2ccc(Cl)cc2)c2ccccn2)cc1 (centres unmarked) [Compound 10, 4-hydroxyphenyl-4-chlorophenyl-pyridin-2-yl-methane]
EC50 (proliferating TG1 GSCs [1]; [7]): > 100 µM | EC50 (quiescent TG1 GSCs [2]; [8]): 4 ± 1.4 µM

CC(=O)Oc1ccc(C(c2ccc(OC(C)=O)cc2)c2cccc[n+]2C)cc1 [Compound 14, 2-(bis(4-acetoxyphenyl)methyl)-1-methylpyridinium iodide]
EC50 (proliferating TG1 GSCs [1]; [7]): > 100 µM | EC50 (quiescent TG1 GSCs [2]; [8]): > 100 µM

Beta-Escin
EC50 (quiescent OB1 GSCs): 6 ± 1 µM | EC50 (proliferating TG16 GSCs): 6 ± 1 µM | EC50 [3]: 7 ± 1 µM | EC50 (quiescent TG16 GSCs): 8 ± 1 µM | Activity on proliferating TG1 GSCs (hit compounds reducing ATP levels) (proliferating TG1 GSCs [4]): yes | Activity on quiescent TG1 GSCs (hit compounds reducing ATP levels) (quiescent TG1 GSCs [5]): yes | EC50 (HEK 293 cells): 31 ± 1 µM

C=C(CC)C(=O)c1ccc(OCC(=O)O)c(Cl)c1Cl [Ethacrynic acid]
EC50 (proliferating OB1 GSCs): 60 ± 20 µM | EC50 (proliferating TG1 GSCs [1]; [9]): 81 ± 11 µM | EC50 (quiescent OB1 GSCs; Homo sapiens): 24 ± 3 µM | EC50 [6]: 21 ± 11 µM | EC50 (proliferating TG16 GSCs; Homo sapiens): > 100 µM | EC50 (quiescent TG1 GSCs [2]; [10]): 41 ± 11 µM | EC50 ([3]; Homo sapiens, Astrocyte): > 100 µM | EC50 (quiescent TG16 GSCs; Homo sapiens): 12 ± 2 µM | Activity on quiescent TG1 GSCs (hit compounds reducing ATP levels) (quiescent TG1 GSCs [5]): yes | EC50 (HEK 293 cells; Homo sapiens, HEK293): > 100 µM

COc1ccc(C(c2ccc(O)cc2)c2ccccn2)cc1 (centres unmarked) [Compound 5, 4-hydroxyphenyl-4-methoxyphenyl-(pyridin-2-yl)-methane]
EC50 (proliferating TG1 GSCs [1]; [7]): > 100 µM | EC50 (quiescent TG1 GSCs [2]; [8]): 8 ± 6 µM | fold increase in EC50 (activity decrease) compared to DDPM (compound 2) (quiescent TG1 GSCs [2]): 8 fold

CC(C)(C)OC(=O)NCCCCCCNC(=O)CCCC#Cc1cccc(C(c2ccc(O)cc2)c2ccc(O)cc2)n1 [Compound 19, tert-butyl(6-(6-(6-(bis(4-hydroxyphenyl)methyl)pyridin-2-yl)hex-5-ynamido)hexyl)carbamate]
Proliferating TG1 GSCs EC50 (proliferating TG1 GSCs [1]; [11]): No activity | EC50 (quiescent TG1 GSCs [2]; [8]): 3.84 µM

Oc1ccc(C(c2ccc(O)cc2)c2cc(Br)ccn2)cc1 [Compound 18, 4,4'-dihydroxyphenyl-2-(4-bromopyridinyl)-methane]
Proliferating TG1 GSCs EC50 (proliferating TG1 GSCs [1]; [11]): No activity | EC50 (quiescent TG1 GSCs [2]; [8]): 0.36 ± 0.06 µM

4-hydroxyphenyl-4-phenyl-(pyridin-2-yl)-methane [Compound 7]
EC50 (proliferating TG1 GSCs [1]; [12]): > 100 µM | EC50 (quiescent TG1 GSCs [2]; [13]): 17.1 ± 6.3 µM

4-hydroxyphenyl-4-trifluoromethylphenyl-2-pyrimidyl-methane [Compound 11]
EC50 (proliferating TG1 GSCs [1]; [12]): > 100 µM | EC50 (quiescent TG1 GSCs [2]; [13]): 12.4 ± 6.9 µM

Oc1ccc(C(c2ccncc2)c2ccc(O)cc2)cc1 [Compound 16, 4,4'-dihydroxyphenyl-4-pyridinyl-methane]
EC50 (proliferating TG1 GSCs [1]; [7]): > 100 µM | EC50 (quiescent TG1 GSCs [2]; [8]): 39 ± 2 µM | fold increase in EC50 (activity decrease) compared to DDPM (compound 2) (quiescent TG1 GSCs [2]): ~ 40 fold

CC(=O)Oc1ccc(C(c2ccc(O)cc2)c2ccccn2)cc1 (centres unmarked) [Compound 3, 4-((4-hydroxyphenyl)(pyridin-2-yl)methyl)phenyl acetate]
EC50 (proliferating TG1 GSCs [1]; [7]): > 100 µM | EC50 (quiescent TG1 GSCs [2]; [8]): 1 ± 0.5 µM

OCCN1CCN(CC/C=C2/c3ccccc3Sc3ccc(Cl)cc32)CC1 [Zuclopenthixol hydrochloride]
EC50 (proliferating OB1 GSCs): 27 ± 9 µM | EC50 (proliferating TG1 GSCs [1]; [9]): 20 ± 3 µM | EC50 (quiescent OB1 GSCs; Homo sapiens): > 100 µM | EC50 [6]: 13 ± 1 µM | EC50 (proliferating TG16 GSCs; Homo sapiens): 29 ± 5 µM | EC50 (quiescent TG1 GSCs [2]; [10]): 52 ± 3 µM | EC50 ([3]; Homo sapiens, Astrocyte): 12 ± 1 µM | EC50 (quiescent TG16 GSCs; Homo sapiens): 48 ± 18 µM | Activity on proliferating TG1 GSCs (hit compounds reducing ATP levels) (proliferating TG1 GSCs [4]): yes | EC50 (HEK 293 cells; Homo sapiens, HEK293): 29 ± 1 µM
